{
  "source": "patent US20130108628A1",
  "about": "“Method for treating cancer pain and/or rescuing analgesic effect of morphine treatment of cancer pain” (priority 2011, published 2013)",
  "assay_type_in_all_cases": "in vivo, rat",
  "key": {"EphB1 [1]": {"system": "EphB1", "assay": "Western blot of EphB1 and its phosphorylation in spinal cord of TCI rats", "settings": "for Increased levels of EphB1: exogenous MMP, no EphB2-Fc", "protocol": "(§1) Protein precipitation procedures in conjunction with Western blots were employed to identify temporal expression of EphB1, ephrinB2 protein and their phosphorylation. Protocols were similar to those described previously (Liu W T, et al., FASEB J 2009; 23:90-8; Liu W T, et al., J Neurosci 2010; 30:7613-23). EphB1 and ephrinB2 were immunoprecipitated from 2 mg total protein/int tissue lysate using an anti-EphB1 antibody (2 μg; Santa Cruz Technology, SCT) complex with protine G-agarose (Invitrogen) and wheat germ agglutinin (WGA) linked to agarose (Sigma), respectively. EphrinB2 and its phosphorylation were detected using anti-ephrinB2 (C20, SCT) and anti-phosphotyrosine antibody PY99 (SCT), respectively (Georgakopoulos A, et al., EMBO J 2006; 25:1242-52). EphB1 and its phosphorylation were detected using anti-EphB1 antibody (Q20, SCT) and phosphotyrosine antibody 4G 10 (Upstate Biotechnology), respectively (Compagni A, et al., Dev Cell 2003; 5:217-30). NR2A immunoprecipitation was performed using anti-NR2A antibody followed by adsorption to protein G-agarose. Whole cell protein extracts lysates were used to identify temporal expression of the phosphorylated protein levels of NR1(pNR1), NR2B(pNR2B), Src(pSrc), ERK(pERK), CaMKII(pCaMKII), CREB(pCREB) and GAPDH. The primary antibodies were used include pNR1(Ser897), 1:800 (Millipore); pNR2B(Tyr1472), 1:300 (Chemicon); pSrc(Tyr418), 1:800 (Abeam, Cambridge, UK); pERK1/2(Thr202/Tyr204), 1:500; pCaMKII(Thr286), 1:1000 (Cell Signaling Technology); GAPDH, 1:1000 (Sigma); GFAP and pCREB (Ser133)(SCT). The filters were then developed using ECL reagents (Perkinelmer) with secondary antibodies (Chemicon). Data was analyzed with a Molecular Imager (Gel Doc™ XR, 170-8170) and the associated software Quantity One-4.6.5 (Bio-Rad Laboratories)."}, "EphB1 [2]": {"system": "EphB1", "assay": "Western blot of EphB1 and pEphB1 in spinal cord of naive rats", "settings": "for Activation (phosphorylation) of EphB1 / Expression of EphB1 protein: exogenous MMP, no EphB2-Fc", "protocol": "as §1"}, "[3]": {"assay": "Morphine analgesia on thermal hyperalgesia in TCI rats", "protocol": "Tumor cells were extracted from ascitic fluid of rats that received Walker-256 rat mammary gland carcinoma cells. Tumor cells implantation (TCI) was mimicked by injecting the cells (1×10^5 cells/μl, 5 μl) into the intra-medullary space of the right tibia to induce bone cancer in rats (Medhurst S J, et al., Pain 2002; 96:129-40).\nThermal hyperalgesia was determined by the significant shortened latency of foot withdrawal in response to heat stimulation. Mechanical allodynia was indicated by a significant decrease in the threshold of paw withdrawal to mechanical indentation of the plantar surface of each hindpaw. The protocols were similar to those described previously (Song X J, et al., J Neurophysiol 2006; 95:479-92; Wang Z B, et al., Pain 2005; 114:266-77)."}, "EphB1 [4]": {"system": "EphB1", "assay": "Western blot of EphB1 after acute or chronic morphine treatment", "protocol": "as §1"}},
  "note": "Entries after “also recorded” stand apart in the source; their conditions may differ. Peptide text beside a SMILES is read from it.",
  "data": [
    {"molecule": "CC(C)C[C@@H](NC(=O)[C@@H]1CCCN1C(=O)CNC(=O)c1ccc(N)cc1)C(=O)N[C@H](C)C(=O)NO", "note": "[FN439] (HELM PEPTIDE1{[Nc1ccc(C(=O)[*:2])cc1].G.P.[dL].[dA].[ON[*:1]]}$$$$V2.0)", "values": [
      {"measurement": "EphB2-Fc-induced downregulation of EphB1", "setting": "EphB1 [1]; MMP2i 10 μg or FN439 100 μg", "value": "reversed; also recorded: completely prevented"},
      {"measurement": "TCI-induced upregulation of EphB1, without EphB2-Fc treatment", "setting": "EphB1 [1]; blocking MMP-2 or MMP-9", "value": "inhibited"},
      {"measurement": "EphB2-Fc-induced downregulation of EphB1", "setting": "EphB1 [2]; MMP2i 10 μg or FN439 100 μg", "value": "reversed; also recorded: completely prevented"},
      {"measurement": "EphB1 level, without EphB2-Fc treatment", "setting": "EphB1 [2]; blocking MMP-2 or MMP-9", "value": "keeping EphB1 at its physiological levels"}
    ]},
    {"molecule": "CN1CC[C@]23c4c5ccc(O)c4O[C@H]2[C@@H](O)C=C[C@H]3[C@H]1C5", "note": "[morphine]", "values": [
      {"measurement": "Thermal hyperalgesia", "setting": "[3]; morphine 10 mg/kg s.c. twice a day", "value": "significantly suppressed"},
      {"measurement": "Time after which the analgesic effect decreased and disappeared (tolerance)", "setting": "[3]; repeated morphine 10 mg/kg s.c. twice a day", "value": "6 to 7", "unit": "days"},
      {"measurement": "Expression of EphB1 and its phosphorylation", "setting": "EphB1 [4]; acute morphine treatment (100 mg/kg, then 10 mg/kg at 24 h)", "value": "significantly increased"},
      {"measurement": "Expression of EphB1 and its phosphorylation", "setting": "EphB1 [4]; acute morphine treatment (100 mg/kg, then 10 mg/kg at 24 h), listed as Mor", "value": "upregulates"},
      {"measurement": "Expression of EphB1 and its phosphorylation", "setting": "EphB1 [4]; chronic morphine treatment (10 mg/kg)", "value": "significantly increased"}
    ]},
    {"molecule": "MMP-9: exogenous matrix metalloproteinase-9 administered to rats", "values": [
      {"measurement": "Increased levels of EphB1", "setting": "EphB1 [1]", "value": "did not significantly alter"},
      {"measurement": "Activation (phosphorylation) of EphB1", "setting": "EphB1 [2]", "value": "an increase rather than a decline"},
      {"measurement": "Expression of EphB1 protein", "setting": "EphB1 [2]", "value": "without altering"}
    ]},
    {"molecule": "MMP-2: exogenous matrix metalloproteinase-2 administered to rats (protein, UniProt P33436 110-662, looked up) 72 kDa type IV collagenase: YNFFPRKPKWDKNQITYRIIGYTPDLDPETVDDAFARALKVWSDVTPLRFSRIHDGEADIMINFGRWEHGDGYPFDGKDGLLAHAFAPGTGVGGDSHFDDDELWTLGEGQVVRVKYGNADGEYCKFPFLFNGREYSSCTDTGRSDGFLWCSTTYNFEKDGKYGFCPHEALFTMGGNGDGQPCKFPFRFQGTSYNSCTTEGRTDGYRWCGTTEDYDRDKKYGFCPETAMSTVGGNSEGAPCVFPFTFLGNKYESCTSAGRSDGKVWCATTTNYDDDRKWGFCPDQGYSLFLVAAHEFGHAMGLEHSQDPGALMAPIYTYTKNFRLSNDDIKGIQELYGPSPDADTDTGTGPTPTLGPVTPEICKQDIVFDGIAQIRGEIFFFKDRFIWRTVTPRDKPTGPLLVATFWPELPEKIDAVYEAPQEEKAVFFAGNEYWVYSASTLERGYPKPLTSLGLPPDVQQVDAAFNWSKNKKTYIFSGDKFWRYNEVKKKMDPGFPKLIADSWNAIPDNLDAVVDLQGGGHSYFFKGAYYLKLENQSLKSVKFGSIKSDWLGC", "values": [
      {"measurement": "Increased levels of EphB1", "setting": "EphB1 [1]", "value": "did not significantly alter"},
      {"measurement": "Activation (phosphorylation) of EphB1", "setting": "EphB1 [2]", "value": "an increase rather than a decline"},
      {"measurement": "Expression of EphB1 protein", "setting": "EphB1 [2]", "value": "without altering"}
    ]}
  ]
}
